In US8933245B2, “Preservation of ergothioneine” (ELC Management LLC, priority 2009, dated 2015):
“And” between values parts separate entries of the source, which are not always exact repeats. Identical values can stand only once.

Columns and labels:
[1] = cited from earlier work; for Ka: acid listed with one ionized form
[2] = Preventing trimethylamine odor by addition of compounds before heating ergothioneine with sodium hydroxide; type: physicochemical; settings: for % EGT (w/v): boiled 10 minutes, HPLC
Experimental: Samples were prepared in glass tubes with screw caps with about 0.05% (w/v) ergothioneine in water, a test sample, at the indicated concentration, and 0.1N NaOH (except for the first tube, in which NaOH was omitted as a negative control). The pH of each sample was determined by litmus paper, and then the tubes capped and placed in a boiling water bath for 10 minutes. The tubes were then cooled to room temperature, and then each one was uncapped and smelled by three testers, each of whom scored the odor. The scores were converted to a scale of 0 (no odor) to 3 (strong fishy trimethylamine odor) and then averaged.

[3] = Formation of yellow addition product of ergothioneine and sodium metabisulfite; type: physicochemical
Experimental: The vials were sealed and mixing the samples was avoided. The samples were incubated and color development observed. The solutions were examined at 1 hour, and the optical density at 405 nm was measured at 2 hours (Table 9).
The cap was removed and the solution was then shaken for 3 to 4 minutes and ambient air was bubbled through it to drive out the dissolved sulfur dioxide gas. […] Therefore the loss of ergothioneine after addition of sodium metabisulfite is due to formation of an addition product which is reversible, and the ergothioneine is not permanently lost.

[4] = Formation of fishy amine odor by boiling ergothioneine with sodium hydroxide or other components; type: physicochemical
Experimental: This became the assay system used to test agents and procedures for reduction or prevention of the odor.
Four samples of a 5 ml ergothioneine solution at 0.1% (w/v) were prepared in glass test tubes with screw caps. To the first was added 5 ml of water, to the second 5 ml of 0.2% (w/v) sodium metabisulfite, to the third 4 ml of water and 1 ml of 1N sodium hydroxide, and to the fourth 5 ml of 0.2% (w/v) citric acid. […] The samples were boiled for 10 minutes and each one was smelled.
This allowed the testing of methods to inhibit the formation of the odor and to suppress the odor after formation.

[5] = Stability of ergothioneine during storage with and without citric acid (HPLC); type: physicochemical; settings: percent of starting concentration, 2 mM in water; for % EGT with citric acid: 0.2% citric acid
Experimental: The samples were stored at 4° C., 25° C. or 40° C. for 30 or 60 days and then analyzed by HPLC. Each vial was used once and then discarded. Each measurement was made in triplicate and the results averaged. A standard curve of ergothioneine concentration was constructed at each time point to quantify the amount of ergothioneine in each vial. Each amount in Table 2 is expressed as percentage of the amount measured in the initial sample at the start of the experiment.

[6] = Formation of yellow addition product of ergothioneine and sodium metabisulfite; type: physicochemical; settings: 1.25% ergothioneine and 5% sodium metabisulfite; cap removed, shaken, ambient air bubbled; after 6 to 7 minutes
[7] = Stability of ergothioneine solution at acidic pH on heating; type: physicochemical; settings: 0.05% solution, pH 5, heating 40 C for 60 days
Description: It has been observed that ergothioneine is quite stable at acidic pH. At pH 5 a 0.05% solution remains within 1% of its concentration after heating 40 C for 60 days. However, the reports of its stability in alkali are mixed in the literature. See, for example, Philip Hartman. “Ergothioneine as antioxidant”, Methods Enzymol. 186:310-318, 1990 at p. 311 (“ . . . the sulfur atom of Ergothioneine is remarkably stable to alkali”); H. Heath and G. Toennies. “The preparation and properties of Ergothioneine disulphide”, J. Chem. Soc. pages 204-210, (1958) at p. 204 (“the sulphur is completely unaffected by boiling 50% aqueous potassium hydroxide.”); Oxis International, Inc. Compound Monograph “L-Ergothioneine. Revision III”, at p. […] “Synthesis of L-(+)-Ergothioneine”, J. Org. Chem. 60:6296-6301, 1995 at p. 6296 (“this explains its stability toward oxidative dimerization”).

[8] = test sample 0.01%, about 0.05% ergothioneine, 0.1N NaOH, litmus paper
[9] = test sample 0.05%, about 0.05% ergothioneine, 0.1N NaOH, litmus paper
[10] = test sample 0.2%, about 0.05% ergothioneine, 0.1N NaOH, litmus paper
[11] = ergothioneine 1.25%, sodium metabisulfite 5.0%
[12] = ergothioneine 1.25%, sodium metabisulfite 7.5%
[13] = ergothioneine 1.25%, sodium metabisulfite 10%
[14] = ergothioneine 1.25%, sodium metabisulfite 12.5%
[15] = ergothioneine 1.25%, sodium metabisulfite 15%
[16] = ergothioneine 1.25%, sodium metabisulfite 17.5%
[17] = ergothioneine 1.25%, sodium metabisulfite 20%
[18] = ergothioneine 1.25%, sodium metabisulfite 22.5%
[19] = ergothioneine 1.25%, sodium metabisulfite 25%
[20] = ergothioneine 1.25%, sodium metabisulfite […]
[21] = ergothioneine […], sodium metabisulfite 0

O=c1[nH]c(=O)c2[nH]c(=O)[nH]c2[nH]1 [uric acid]
Ka [1]: 1.29E−4

CC(=O)O [acetic acid]
Ka [1]: 1.74E−5 | % EGT (w/v) ([2]; test sample 0.01%, 0.1N NaOH): 0.050 % (w/v) | pH [2, 8]: 10.5 | % EGT (w/v) ([2]; test sample 0.05%, 0.1N NaOH): 0.052 % (w/v) | pH [2, 9]: 8 | % EGT (w/v) ([2]; test sample 0.2%, 0.1N NaOH): 0.052 % (w/v) | pH [2, 10]: 4

O=C1O[C@H]([C@@H](O)CO)C(O)=C1O [ascorbic acid]
% EGT (w/v) ([2]; test sample 0.01%, 0.1N NaOH): 0.050 % (w/v) | pH [2, 8]: 10.5 | % EGT (w/v) ([2]; test sample 0.05%, 0.1N NaOH): 0.050 % (w/v) | pH [2, 9]: 10.5 | % EGT (w/v) ([2]; test sample 0.2%, 0.1N NaOH): 0.047 % (w/v) | pH [2, 10]: 5

O=S([O-])S(=O)(=O)[O-].[Na+].[Na+] [sodium metabisulfite]
time to apparent reduction in the amount of ergothioneine (HPLC) ([3]; after addition of sodium metabisulfite, room temperature without boiling): ≤ 10 min | pH ([4]; litmus paper, before boiling, 5 ml 0.1% ergothioneine plus 5 ml addition): 5 | % EGT (w/v) ([2]; test sample 0.01%, 0.1N NaOH): 0.044 % (w/v) | pH [2, 8]: 10 | % EGT (w/v) ([2]; test sample 0.05%, 0.1N NaOH): 0.037 % (w/v) | pH [2, 9]: 9.5 | % EGT (w/v) ([2]; test sample 0.2%, 0.1N NaOH): 0.029 % (w/v) | pH [2, 10]: 6.5

CCCCC(=O)O [pentanoic acid]
Ka [1]: 3.31E−5

O=S(O)O [sulfurous acid]
Ka (1) ([1]; first ionized form): 1.41E−2 | Ka (2) ([1]; second ionized form): 6.31E−8

O=P(O)(O)O [phosphoric acid]
% EGT (w/v) ([2]; test sample 0.01%, 0.1N NaOH): 0.052 % (w/v) | % EGT (w/v) ([2]; test sample 0.05%, 0.1N NaOH): 0.054 % (w/v) | % EGT (w/v) ([2]; test sample 0.2%, 0.1N NaOH): 0.058 % (w/v)

C[N+](C)(C)[C@@H](Cc1c[nH]c(=S)[nH]1)C(=O)[O-] [ergothioneine]
color of solution ([3]; 1.25% ergothioneine and 5% sodium metabisulfite, one week at room temperature in a capped tube): intense lemon yellow | Color description at 1 h [3, 11]: Near colorless | OD405 at 2 hr [3, 11]: 0.104 | Color description at 1 h [3, 12]: Yellow tinge | OD405 at 2 hr [3, 12]: 0.186 | Color description at 1 h [3, 13]: Slight yellow | OD405 at 2 hr [3, 13]: 0.265 | Color description at 1 h [3, 14]: Light yellow | OD405 at 2 hr [3, 14]: 0.456 | Color description at 1 h [3, 15]: Yellow | OD405 at 2 hr [3, 15]: 0.593 | Color description at 1 h [3, 16]: Yellow | OD405 at 2 hr [3, 16]: 0.966 | Color description at 1 h [3, 17]: Light lemon yellow | OD405 at 2 hr [3, 17]: 1.993 | Color description at 1 h [3, 18]: Intense lemon yellow | OD405 at 2 hr [3, 18]: 2.873 | Color description at 1 h [3, 19]: Intense lemon yellow | OD405 at 2 hr [3, 19]: 3.126 | Color description at 1 h [3, 20]: Colorless | OD405 at 2 hr [3, 20]: 0.044 | Color description at 1 h [3, 21]: Colorless | OD405 at 2 hr [3, 21]: 0.004 | % EGT with citric acid ([5]; 4° C., 30 days): 101.6% | % EGT with citric acid ([5]; 4° C., 60 days): 105.8% | % EGT with citric acid ([5]; 25° C., 30 days): 101.5% | % EGT with citric acid ([5]; 25° C., 60 days): 102.2% | % EGT with citric acid ([5]; 40° C., 30 days): 101.1% | % EGT with citric acid ([5]; 40° C., 60 days): 99.6% | % EGT without citric acid ([5]; 4° C., 30 days): 96.1% | % EGT without citric acid ([5]; 4° C., 60 days): 106.5% | % EGT without citric acid ([5]; 25° C., 30 days): 84.0% | % EGT without citric acid ([5]; 25° C., 60 days): 100.5% | % EGT without citric acid ([5]; 40° C., 30 days): 86.3% | % EGT without citric acid ([5]; 40° C., 60 days): 99.8% | color of solution after driving out sulfur dioxide [6]: nearly colorless with a yellow tinge | change of concentration [7]: ≤ 1%

[Na+].[OH-] [sodium hydroxide]
pH [4]: approximately 10

O=C(O)CC(O)(CC(=O)O)C(=O)O [citric acid]
pH [4]: 5 | pH [2]: 8 and 10 | % EGT (w/v) ([2]; test sample 0.01%, 0.1N NaOH): 0.052 % (w/v) | % EGT (w/v) ([2]; test sample 0.05%, 0.1N NaOH): 0.053 % (w/v) | % EGT (w/v) ([2]; test sample 0.2%, 0.1N NaOH): 0.054 % (w/v)

CCCCCCC(=O)O [heptanoic acid]
Ka [1]: 1.29E−5

Cl [Hydrochloric acid]
% EGT (w/v) ([2]; test sample 0.0001%, 0.1N NaOH): 0.050 % (w/v) | pH ([2]; test sample 0.0001%, about 0.05% ergothioneine, 0.1N NaOH, litmus paper): 11.5 | % EGT (w/v) ([2]; test sample 0.01%, 0.1N NaOH): 0.050 % (w/v) | pH [2, 8]: 10

OB(O)O [boric acid]
pH [2]: 8.5 and 10 and 10.5 | % EGT (w/v) ([2]; test sample 0.01%, 0.1N NaOH): 0.050 % (w/v) | % EGT (w/v) ([2]; test sample 0.05%, 0.1N NaOH): 0.051 % (w/v) | % EGT (w/v) ([2]; test sample 0.2%, 0.1N NaOH): 0.052 % (w/v)
